Laboratory results reported in publication PMC9515202, “Bis-pharmacophore of cinnamaldehyde-clubbed thiosemicarbazones as potent carbonic anhydrase-II inhibitors” (Scientific Reports, 2022).

How the values were obtained:
[1] = biological target: bovine carbonic anhydrase II (bCA-II) (Bos taurus, UniProt P00921); assay: Carbonic anhydrase II (CA-II) inhibition, spectrophotometric p-nitrophenyl acetate assay; type: biochemical; settings: pH 7.4, 25 °C; for IC50: bCA-II, substrate p-NPA, triplicate; for inhibition at 500 µM: pH 7.4, bCA-II, compound at 500 µM, read-out: % Inhibtion (500 µM)
Method: Evaluation of carbonic anhydrase inhibition was done by spectrophotometric technique as narrated by Pocker and Meany with little alteration[69],[70] as described previously. The process was carried out in HEPES-Tris buffer (20 mM) having pH 7.4 at 25 °C. Each inhibitory well contained 20 µL of CA-II enzyme solution (0.1 mg/mL HEPES-Tris buffer), 140 µL of HEPES-Tris buffer solution, 20 µL of the compound to be analyzed in HPLC grade DMSO. At 25 °C, the solution mixture was pre-incubated for 15 min. Substrate p-nitrophenyl acetate (p-NPA) (0.7 mM) was prepared in HPLC grade methanol and the reaction was initiated by the addition of 20 µL to a well in a 96-well-plate. The quantity of product formed was measured at 400 nm continually at 1 min gap for 30 min in a 96-well-plate using xMARK microplate spectrophotometer, Bio-Rad (USA). The inhibition activity of the controlled compound was considered as 100%. All the experiments were performed in triplicates of each used concentration, and the conclusions are expressed as a mean of the triplicate.
All thiosemicarbazones derivatives (3a–q) were tested against bovine carbonic anhydrase II (bCA-II).

bovine carbonic anhydrase II (bCA-II), sequence (P00921 whole entry): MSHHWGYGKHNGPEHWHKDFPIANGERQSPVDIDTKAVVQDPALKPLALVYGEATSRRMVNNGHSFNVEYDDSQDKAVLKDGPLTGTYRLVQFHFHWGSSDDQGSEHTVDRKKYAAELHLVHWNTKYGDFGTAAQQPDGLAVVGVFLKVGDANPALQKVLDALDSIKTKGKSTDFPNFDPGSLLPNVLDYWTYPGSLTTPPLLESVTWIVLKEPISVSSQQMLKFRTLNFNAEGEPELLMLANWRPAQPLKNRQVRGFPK

IC50 [1] | inhibition at 500 µM [1] | melting point | SMILES
40.4 ± 0.89 µM | 78.1% | 239 °C | Cc1cccc(C)c1NC(=S)N/N=C/C=C/c1ccc(N(C)C)cc1 [3b, (E)-2-((E)-3-(4-(Dimethylamino)phenyl)allylidene)-N-(2,6-dimethylphenyl)hydrazine-1-carbothioamide]
36.6 ± 0.15 µM | 82.2% | 192 °C | CN(C)c1ccc(/C=C/C=N/NC(=S)Nc2cccc(Cl)c2Cl)cc1 [3d, (E)-N-(2,3-Dichlorophenyl)-2-((E)-3-(4-(dimethylamino)phenyl)allylidene)hydrazine-1-carbothioamide]
19.7 ± 0.23 µM | 93.4% | 189 °C | CN(C)c1ccc(/C=C/C=N/NC(=S)Nc2ccccc2F)cc1 [3e, (E)-2-((E)-3-(4-(Dimethylamino)phenyl)allylidene)-N-(2-fluorophenyl)hydrazine-1-carbothioamide]
17.9 ± 1.23 µM | 89.7% | 198 °C | COc1cccc(NC(=S)N/N=C/C=C/c2ccc(N(C)C)cc2)c1 [3f, (E)-2-((E)-3-(4-(Dimethylamino)phenyl)allylidene)-N-(3-methoxyphenyl)hydrazine-1-carbothioamide]
12.1 ± 1.01 µM | 93% | 240 °C | CN(C)c1ccc(/C=C/C=N/NC(=S)Nc2ccc(Br)cc2)cc1 [3g, (E)-N-(4-Bromophenyl)-2-((E)-3-(4-(dimethylamino)phenyl)allylidene)hydrazine-1-carbothioamide]
13.4 ± 0.52 µM | 77.1% | 202 °C | CN(C)c1ccc(/C=C/C=N/NC(=S)Nc2ccc(F)cc2F)cc1 [3h, (E)-N-(2,4-Difluorophenyl)-2-((E)-3-(4-(dimethylamino)phenyl)allylidene)hydrazine-1-carbothioamide]
– | < 50% | 218 °C | CN(C)c1ccc(/C=C/C=N/NC(=S)Nc2cccc(F)c2)cc1 [3j, (E)-2-((E)-3-(4-(Dimethylamino)phenyl)allylidene)-N-(3-fluorophenyl)hydrazine-1-carbothioamide]
18.3 ± 1.32 µM | 78.2% | 232 °C | Cc1ccc(NC(=S)N/N=C/C=C/c2ccc(N(C)C)cc2)c(C)c1 [3l, (E)-2-((E)-3-(4-(Dimethylamino)phenyl)allylidene)-N-(2,4-dimethylphenyl)hydrazine-1-carbothioamide]
14.7 ± 1.42 µM | 79.9% | 238 °C | CN(C)c1ccc(/C=C/C=N/NC(=S)Nc2ccc(Cl)cc2)cc1 [3m, (E)-N-(4-Chlorophenyl)-2-((E)-3-(4-(dimethylamino)phenyl)allylidene)hydrazine-1-carbothioamide]
10.3 ± 0.62 µM | 63.2% | 192 °C | CN(C)c1ccc(/C=C/C=N/NC(=S)NCc2ccc(F)cc2)cc1 [3n]

The next lines start with the compound.

SMILES | IC50 [1] | inhibition at 500 µM [1] | melting point
Cc1ccc(NC(=S)N/N=C/C=C/c2ccc(N(C)C)cc2)cc1 [3a, (E)-2-((E)-3-(4-(Dimethylamino)phenyl)allylidene)-N-(p-tolyl)hydrazine-1-carbothioamide] | 46.6 ± 0.62 µM | 82% | 232 °C
CN(C)c1ccc(/C=C/C=N/NC(=S)NCCc2ccccc2)cc1 [3c] | – | – | 180 °C
CC(C)c1ccc(NC(=S)N/N=C/C=C/c2ccc(N(C)C)cc2)cc1 [3i, (E)-2-((E)-3-(4-(Dimethylamino)phenyl)allylidene)-N-(4-isopropylphenyl)hydrazine-1-carbothioamide] | 33.6 ± 0.42 µM | 84.9% | 220 °C
CN(C)c1ccc(/C=C/C=N/NC(=S)NCc2ccc(Cl)cc2)cc1 [3k] | – | – | 196 °C
CN(C)c1ccc(/C=C/C=N/NC(=S)Nc2cccc(C#N)c2)cc1 [3o, (E)-N-(3-Cyanophenyl)-2-((E)-3-(4-(dimethylamino)phenyl)allylidene)hydrazine-1-carbothioamide] | 21.8 ± 0.85 µM | 81.8% | 215 °C
CN(C)c1ccc(/C=C/C=N/NC(=S)Nc2ccccc2)cc1 [3p, (E)-2-((E)-3-(4-(Dimethylamino)phenyl)allylidene)-N-phenylhydrazine-1-carbothioamide] | – | – | 218 °C
CN(C)c1ccc(/C=C/C=N/NC(=S)NC2CCCCC2)cc1 [3q, (E)-N-Cyclohexyl-2-((E)-3-(4-(dimethylamino)phenyl)allylidene)hydrazine-1-carbothioamide] | – | – | 252 °C
